Test results reported in ChEMBL document CHEMBL4368888, “Design, synthesis and biological evaluation of tryptamine salicylic acid derivatives as potential antitumor agents” (Medchemcomm, 2019).
Calls of active or inactive are those of the source. No cut-off for these calls is given here.

Assays:
MCF7 = assay: Antiproliferative activity against human MCF7 cells after 48 hrs by MTT assay; format: functional, cell-based; conditions: MCF7, 48 h
A549 = assay: Antiproliferative activity against human A549 cells after 48 hrs by MTT assay; format: functional, cell-based; conditions: A549, 48 h
MGC-803 [1] = assay: Antiproliferative activity against human MGC803 cells after 48 hrs by MTT assay; format: functional, cell-based; conditions: MGC-803, 48 h
HepG2 = assay: Antiproliferative activity against human HepG2 cells after 48 hrs by MTT assay; format: functional, cell-based; conditions: HepG2, 48 h
HeLa = assay: Antiproliferative activity against human HeLa cells after 48 hrs by MTT assay; format: functional, cell-based
MGC-803 [2] = assay: Inhibition of colony formation in human MGC803 cells assessed as reduction in viable cells incubated for 9 days where culture medium was changed every 3 days by crystal violet staining-based assay; format: functional, cell-based
MGC-803 [3] = assay: Inhibition of colony formation in human MGC803 cells assessed as reduction in viable cells at 40 uM incubated for 9 days where culture medium was changed every 3 days by crystal violet staining-based assay; format: functional
MGC-803 [4] = assay: Antimigratory activity against human MGC803 cells after 48 hrs by scratch wound-healing assay; format: functional, cell-based
MGC-803 [5] = assay: Induction of apoptosis in human MGC803 cells assessed as viable cells at 10 uM after 24 hrs by Annexin V-FITC/propidium iodide staining-based flow cytometric analysis (reference value: 94.2%); format: functional; conditions: MGC-803, 24 h, read-out: Activity
MGC-803 [6] = assay: Induction of apoptosis in human MGC803 cells assessed as early apoptotic cells at 10 uM after 24 hrs by Annexin V-FITC/propidium iodide staining-based flow cytometric analysis (reference value: 1.04%); format: functional
MGC-803 [7] = assay: Induction of apoptosis in human MGC803 cells assessed as late apoptotic cells at 10 uM after 24 hrs by Annexin V-FITC/propidium iodide staining-based flow cytometric analysis (reference value: 4.17%); format: functional
MGC-803 [8] = assay: Induction of apoptosis in human MGC803 cells assessed as necrotic cells at 10 uM after 24 hrs by Annexin V-FITC/propidium iodide staining-based flow cytometric analysis (reference value: 0.556%); format: functional
MGC-803 [9] = assay: Induction of apoptosis in human MGC803 cells assessed as viable cells at 20 uM after 24 hrs by Annexin V-FITC/propidium iodide staining-based flow cytometric analysis (reference value: 94.2%); format: functional; conditions: MGC-803, 24 h, read-out: Activity
MGC-803 [10] = assay: Induction of apoptosis in human MGC803 cells assessed as early apoptotic cells at 20 uM after 24 hrs by Annexin V-FITC/propidium iodide staining-based flow cytometric analysis (reference value: 1.04%); format: functional
MGC-803 [11] = assay: Induction of apoptosis in human MGC803 cells assessed as late apoptotic cells at 20 uM after 24 hrs by Annexin V-FITC/propidium iodide staining-based flow cytometric analysis (reference value: 4.17%); format: functional
MGC-803 [12] = assay: Induction of apoptosis in human MGC803 cells assessed as necrotic cells at 20 uM after 24 hrs by Annexin V-FITC/propidium iodide staining-based flow cytometric analysis (reference value: 0.556%); format: functional
MGC-803 [13] = assay: Induction of apoptosis in human MGC803 cells assessed as viable cells at 30 uM after 24 hrs by Annexin V-FITC/propidium iodide staining-based flow cytometric analysis (reference value: 94.2%); format: functional; conditions: MGC-803, 24 h, read-out: Activity
MGC-803 [14] = assay: Induction of apoptosis in human MGC803 cells assessed as early apoptotic cells at 30 uM after 24 hrs by Annexin V-FITC/propidium iodide staining-based flow cytometric analysis (reference value: 1.04%); format: functional
MGC-803 [15] = assay: Induction of apoptosis in human MGC803 cells assessed as late apoptotic cells at 30 uM after 24 hrs by Annexin V-FITC/propidium iodide staining-based flow cytometric analysis (reference value: 4.17%); format: functional
MGC-803 [16] = assay: Induction of apoptosis in human MGC803 cells assessed as necrotic cells at 30 uM after 24 hrs by Annexin V-FITC/propidium iodide staining-based flow cytometric analysis (reference value: 0.556%); format: functional
MGC-803 [17] = assay: Induction of apoptosis in human MGC803 cells after 24 hrs by Annexin V-FITC/propidium iodide staining-based flow cytometric analysis; format: functional, cell-based
MGC-803 [18] = assay: Cell cycle arrest in human MGC803 cells assessed as accumulation of cells at G0/G1 phase at 20 uM after 24 hrs by propidium iodide staining-based flow cytometric analysis (reference value: 51.37%); format: functional
MGC-803 [19] = assay: Cell cycle arrest in human MGC803 cells assessed as accumulation of cells at S phase at 20 uM after 24 hrs by propidium iodide staining-based flow cytometric analysis (reference value: 37.1%); format: functional
MGC-803 [20] = assay: Cell cycle arrest in human MGC803 cells assessed as accumulation of cells at G2/M phase at 20 uM after 24 hrs by propidium iodide staining-based flow cytometric analysis (reference value: 9.86%); format: functional
MGC-803 [21] = assay: Cell cycle arrest in human MGC803 cells assessed as accumulation of cells at G0/G1 phase at 40 uM after 24 hrs by propidium iodide staining-based flow cytometric analysis (reference value: 51.37%); format: functional
MGC-803 [22] = assay: Cell cycle arrest in human MGC803 cells assessed as accumulation of cells at S phase at 40 uM after 24 hrs by propidium iodide staining-based flow cytometric analysis (reference value: 37.1%); format: functional
MGC-803 [23] = assay: Cell cycle arrest in human MGC803 cells assessed as accumulation of cells at G2/M phase at 40 uM after 24 hrs by propidium iodide staining-based flow cytometric analysis (reference value: 9.86%); format: functional
MGC-803 [24] = assay: Cell cycle arrest in human MGC803 cells assessed as accumulation of cells at G0/G1 phase at 60 uM after 24 hrs by propidium iodide staining-based flow cytometric analysis (reference value: 51.37%); format: functional
MGC-803 [25] = assay: Cell cycle arrest in human MGC803 cells assessed as accumulation of cells at S phase at 60 uM after 24 hrs by propidium iodide staining-based flow cytometric analysis (reference value: 37.1%); format: functional
MGC-803 [26] = assay: Cell cycle arrest in human MGC803 cells assessed as accumulation of cells at G2/M phase at 60 uM after 24 hrs by propidium iodide staining-based flow cytometric analysis (reference value: 9.86%); format: functional
MGC-803 [27] = assay: Cell cycle arrest in human MGC803 cells assessed as accumulation of cells at G2/M phase after 24 hrs by propidium iodide staining-based flow cytometric analysis; format: functional
MGC-803 [28] = assay: Effect on HIF-1 expression levels in human MGC803 cells at 10 to 40 uM in presence of 100 uM CoCl2 after 24 hrs by Western blot analysis; format: functional, cell-based
MGC-803 [29] = assay: Effect on PFK expression levels in human MGC803 cells at 10 to 40 uM after 24 hrs by Western blot analysis; format: functional, cell-based
MGC-803 [30] = assay: Down regulation of HK2 expression levels in human MGC803 cells at 10 to 40 uM after 24 hrs by Western blot analysis; format: functional, cell-based

Cc1cccc(C(=O)NCCc2c[nH]c3ccc(Br)cc23)c1O
IC50 (MCF7): 63 µM
IC50 (A549): 36 µM
IC50 (MGC-803 [1]): 29 µM
IC50 (HepG2): 45 µM
IC50 (HeLa): 52 µM
inhibition (MGC-803 [2]): Dose-dependent effect
inhibition at 40 µM (MGC-803 [3]): 100%
Activity (MGC-803 [4]): Dose-dependent effect
viability at 10 µM (MGC-803 [5]): 91.5%
Activity (MGC-803 [6]): 1.66%
Activity (MGC-803 [7]): 6.56%
Activity (MGC-803 [8]): 0.25%
viability at 20 µM (MGC-803 [9]): 83%
Activity (MGC-803 [10]): 5.97%
Activity (MGC-803 [11]): 9.67%
Activity (MGC-803 [12]): 1.37%
viability at 30 µM (MGC-803 [13]): 41.3%
Activity (MGC-803 [14]): 42.7%
Activity (MGC-803 [15]): 15.4%
Activity (MGC-803 [16]): 0.587%
Activity (MGC-803 [17]): Dose-dependent effect
Activity (MGC-803 [18]): 43%
Activity (MGC-803 [19]): 21.11%
Activity (MGC-803 [20]): 27.01%
Activity (MGC-803 [21]): 49.99%
Activity (MGC-803 [22]): 15.58%
Activity (MGC-803 [23]): 34.65%
Activity (MGC-803 [24]): 52.98%
Activity (MGC-803 [25]): 7.56%
Activity (MGC-803 [26]): 40.78%
Activity (MGC-803 [27]): Dose-dependent effect
Activity (MGC-803 [28]): inactive
Activity (MGC-803 [29]): inactive
Activity (MGC-803 [30]): Active
